# Experiment: Solubility in water, shaken five days, HPLC
# Type: physicochemical
# Conditions: thermodynamic from solid, room temperature (25° C.)
# Experimental: […] of each of the complexes and artemisinin crystals were separately shaken in 25 ml of water maintained at room temperature (25° C.) for five days. The solution was then filtered through a 0.2 μu membrane filter and suitably diluted before analysis. An analysis of the drug concentration in the solution was determined by high performance liquid chromatography using a method reported by Chan et al (1997).
smiles,measurement,value
"C[C@@H]1CC[C@H]2[C@@H](C)C(=O)O[C@@H]3O[C@@]4(C)CC[C@@H]1[C@]32OO4 [artemisinin crystals, artemisinin]",solubility at 5 days,55.7 ± 1.75 µg/mL
